What was measured:
[1] = target: T1, β5 subunit of the human immunoproteasome (IPS) (Homo sapiens, UniProt P28062); test: β5 inhibition assay, human immunoproteasome (Suc-LLVY-AMC); format: biochemical; conditions: IC50 class, Suc-LLVY-AMC substrate
T1 construct: purchased Boston Biochem E-370
Method in brief: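 β5 activity is read as liberated AMC fluorescence (355/460 nm) after 4 h dark reaction at RT with 22.6 μM Suc-LLVY-AMC, stopped by 1 μM bortezomib. Beforehand, 1 nM human IPS and compound sat 10 min at RT in HEPES pH 7.5 buffer containing NaCl, 0.02% SDS and DTT.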

HT-29 cells = test: CellTiter-Glo luminescent cell viability assay with HT-29 cells (72h incubation); format: cell-based, human; conditions: Homo sapiens, HT-29, HT29 cells, read-out: CTG HT29
Method in brief: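 Viability read as CellTiter-Glo luminescence after 72 h compound exposure, with 10 μM staurosporine and DMSO as control wells. Seeding 400 cells per well, compound added 24 h post-plating; IC50 from curve fitting.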

[2] = test system: A549 (human lung carcinoma cell line); test: Glo assay of A549 cells (Table 3; ProteasomeGlo plating scheme); format: cell-based; conditions: Homo sapiens; A549 cells; read-out: PGLo A549
Method in brief: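 IC50 values (nM) come from a cell-based chymotrypsin-like Proteasome-Glo luminescence assay. Compound exposure ran 105 min at 37° C.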

Row | Compound | IC50 [1] [nM] | IC50 (HT-29 cells) [nM] | IC50 [2] [nM]
1 | CC(=O)N[C@H]1CC(=O)N2CCCC(CCOc3ccc(C)c(c3)CNC(=O)C(c3ccc4ncccc4c3)NC1=O)C2 (stereo partly drawn) [Compound 554, N-((12S)-5^4-methyl-8,11,14-trioxo-9-(quinolin-6-yl)-4-oxa-7,10-diaza-1(3,1)-piperidina-5(1,3)-benzenacyclotetradecaphane-12-yl)acetamide] | < 100 | < 100 | 100 to 500
2 | CC(=O)N[C@H]1CC(=O)N2CCCC(CCOc3ccc(C)c(c3)CNC(=O)C(Cn3c(=O)oc4ccccc43)NC1=O)C2 (stereo partly drawn) [Compound 555, N-((12S)-5^4-methyl-8,11,14-trioxo-9-((2-oxobenzo[d]oxazol-3(2H)-yl)methyl)-4-oxa-7,10-diaza-1(3,1)-piperidina-5(1,3)-benzenacyclotetradecaphane-12-yl)acetamide] | < 100 | < 100 | < 100
3 | CC(=O)N[C@H]1CC(=O)N2CCCC(CCOc3ccc(C)c(c3)CNC(=O)C(c3cc(C)sn3)NC1=O)C2 (stereo partly drawn) [Compound 556, N-((12S)-5^4-methyl-9-(5-methylisothiazol-3-yl)-8,11,14-trioxo-4-oxa-7,10-diaza-1(3,1)-piperidina-5(1,3)-benzenacyclotetradecaphane-12-yl)acetamide] | < 100 | < 100 | < 100
4 | CC(=O)N[C@H]1CC(=O)N2CCCC(CCOc3ccc(C)c(c3)CNC(=O)C(c3cn(C)cn3)NC1=O)C2 (stereo partly drawn) [Compound 557, N-((12S)-5^4-methyl-9-(1-methyl-1H-imidazol-4-yl)-8,11,14-trioxo-4-oxa-7,10-diaza-1(3,1)-piperidina-5(1,3)-benzenacyclotetradecaphane-12-yl)acetamide] | < 100 | 100 to 500 | < 100
5 | CC(=O)N[C@H]1CC(=O)N2CCCC(CCOc3ccc(C)c(c3)CNC(=O)C(Cc3ccccc3)NC1=O)C2 (stereo partly drawn) [Compound 558, N-((12S)-9-benzyl-5^4-methyl-8,11,14-trioxo-4-oxa-7,10-diaza-1(3,1)-piperidina-5(1,3)-benzenacyclotetradecaphane-12-yl)acetamide] | < 100 | < 100 | 100 to 500
6 | CC(=O)N[C@H]1CC(=O)N2CCCC(CCOc3ccc(C)c(c3)CNC(=O)C(c3cnn(-c4ccccc4)c3)NC1=O)C2 (stereo partly drawn) [Compound 559, N-((12S)-5^4-methyl-8,11,14-trioxo-9-(1-phenyl-1H-pyrazol-4-yl)-4-oxa-7,10-diaza-1(3,1)-piperidina-5(1,3)-benzenacyclotetradecaphane-12-yl)acetamide] | < 100 | < 100 | 100 to 500
7 | COC(=O)N(CC1NC(=O)[C@@H](NC(C)=O)CC(=O)N2CCCC(CCOc3ccc(C)c(c3)CNC1=O)C2)c1ccccc1 (stereo partly drawn) [Compound 560, methyl (((12S)-12-acetamido-5^4-methyl-8,11,14-trioxo-4-oxa-7,10-diaza-1(3,1)-piperidina-5(1,3)-benzenacyclotetradecaphane-9-yl)methyl)(phenyl)carbamate] | < 100 | < 100 | 100 to 500
8 | CC(=O)N[C@H]1CC(=O)N2CCCC(CCOc3ccc(C)c(c3)CNC(=O)C(c3cc(C)n(C)n3)NC1=O)C2 (stereo partly drawn) [Compound 561, N-((12S)-9-(1,5-dimethyl-1H-pyrazol-3-yl)-5^4-methyl-8,11,14-trioxo-4-oxa-7,10-diaza-1(3,1)-piperidina-5(1,3)-benzenacyclotetradecaphane-12-yl)acetamide] | < 100 | < 100 | < 100
9 | CC(=O)N[C@H]1CC(=O)N2CCCC(CCOc3ccc(C)c(c3)CNC(=O)C(c3cn[nH]c3)NC1=O)C2 (stereo partly drawn) [Compound 562, N-((12S)-5^4-methyl-8,11,14-trioxo-9-(1H-pyrazol-4-yl)-4-oxa-7,10-diaza-1(3,1)-piperidina-5(1,3)-benzenacyclotetradecaphane-12-yl)acetamide] | < 100 | 100 to 500 | 100 to 500
10 | CC(=O)N[C@H]1CC(=O)N2CCCC(CCOc3ccc(C)c(c3)CNC(=O)C(CCc3nccs3)NC1=O)C2 (stereo partly drawn) [Compound 563, N-((12S)-5^4-methyl-8,11,14-trioxo-9-(2-(thiazol-2-yl)ethyl)-4-oxa-7,10-diaza-1(3,1)-piperidina-5(1,3)-benzenacyclotetradecaphane-12-yl)acetamide] | < 100 | < 100 | < 100
11 | CC(=O)N[C@H]1CC(=O)N2CCCC(CCOc3ccc(C)c(c3)CNC(=O)C(c3cnn(CCOCCOCCOCCN)c3)NC1=O)C2 (stereo partly drawn) [Compound 566, N-((12S)-9-(1-(2-(2-(2-(2-aminoethoxy)ethoxy)ethoxy)ethyl)-1H-pyrazol-4-yl)-5^4-methyl-8,11,14-trioxo-4-oxa-7,10-diaza-1(3,1)-piperidina-5(1,3)-benzenacyclotetradecaphane-12-yl)acetamide] | < 100 | 100 to 500 | < 100
12 | CC(=O)N[C@H]1CC(=O)N2CCCC(CCOc3ccc(C)c(c3)CNC(=O)C(c3cnn(CCC(=O)O)c3)NC1=O)C2 (stereo partly drawn) [Compound 567, 3-(4-((12S)-12-acetamido-5^4-methyl-8,11,14-trioxo-4-oxa-7,10-diaza-1(3,1)-piperidina-5(1,3)-benzenacyclotetradecaphane-9-yl)-1H-pyrazol-1-yl)propanoic acid] | < 100 | 100 to 500 | < 100
